PMC6821655, “Marine Archaeon Methanosarcina acetivorans Enhances Polyphosphate Metabolism Under Persistent Cadmium Stress” (Frontiers in Microbiology, 2019)

Target: T1, Ma-PPK (Methanosarcina acetivorans, UniProt Q8TUI6)
T1 construct: recombinant full-length, heterologously overexpressed and purified; gene product 2187 bp (about 728 residues), 81 kDa; tag and host only in supplement
Assay: polyphosphate synthesis, toluidine blue absorbance at […] nm
Format: biochemical
Conditions: variable Mg-ATP; trimethylsilyl polyP; 37 °C; Km given as unchanged with or without 120 mM K+; read-out: KmATP

T1 sequence (Q8TUI6 entry or part of it): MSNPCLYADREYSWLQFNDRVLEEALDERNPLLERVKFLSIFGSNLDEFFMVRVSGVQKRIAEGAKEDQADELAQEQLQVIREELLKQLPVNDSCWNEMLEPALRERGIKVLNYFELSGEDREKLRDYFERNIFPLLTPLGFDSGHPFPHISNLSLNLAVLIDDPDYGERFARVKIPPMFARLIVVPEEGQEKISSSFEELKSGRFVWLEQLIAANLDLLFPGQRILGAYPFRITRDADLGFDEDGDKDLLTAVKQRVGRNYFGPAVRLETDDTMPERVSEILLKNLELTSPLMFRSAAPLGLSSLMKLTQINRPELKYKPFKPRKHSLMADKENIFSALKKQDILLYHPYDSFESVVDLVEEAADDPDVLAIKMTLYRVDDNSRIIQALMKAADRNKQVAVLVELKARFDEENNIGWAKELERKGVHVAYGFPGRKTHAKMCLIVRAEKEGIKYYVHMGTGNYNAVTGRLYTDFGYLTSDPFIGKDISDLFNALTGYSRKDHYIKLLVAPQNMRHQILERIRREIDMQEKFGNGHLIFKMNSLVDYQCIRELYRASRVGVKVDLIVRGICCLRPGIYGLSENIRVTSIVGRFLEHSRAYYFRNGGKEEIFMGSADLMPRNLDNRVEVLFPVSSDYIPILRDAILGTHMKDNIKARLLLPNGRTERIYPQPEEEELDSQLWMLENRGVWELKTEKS

## Nc1ncnc2c1ncn2[C@@H]1O[C@H](COP(=O)(O)OP(=O)(O)OP(=O)(O)O)[C@@H](O)[C@H]1O [ATP]
  Km: 1.4 mM
